Source: PMC9377253, “Antiproliferative and cytotoxic effects of sesquiterpene lactones isolated from Ambrosia artemisiifolia on human adenocarcinoma and normal cell lines” (Pharmaceutical Biology, 2022)

Key:
[1] = tested on: multidrug-resistant Colo 320 colonic adenocarcinoma cells expressing the ABCB1 transporter; assay: Checkerboard combination assay with doxorubicin; format: cell-based, human
Description: A checkerboard microplate method was applied to study the effect of drug interactions between the compounds and doxorubicin. The assay was carried out using multidrug-resistant Colo 320 colonic adenocarcinoma cells expressing the ABCB1 transporter. The final concentration of the chemotherapeutic agent doxorubicin used in the combination experiment was chosen in accordance with their antiproliferative activity previously determined. The dilutions of the chemotherapeutic drug were made in a horizontal direction in 100 μL, and the dilutions of the compounds vertically in the microtitre plate in 50 μL volume. The cells were re-suspended in culture medium and distributed into each well in 50 μL containing 6 × 10^3 cells each. The plates were incubated for 72 h at 37 °C in 5% CO2 atmosphere. The cell growth rate was determined after MTT staining. At the end of the incubation period, 20 μL of MTT (thiazolyl blue tetrazolium bromide, Sigma) solution (from a stock solution of 5 mg/mL) was added to each well. After incubation at 37 °C for 4 h, 100 μL of SDS (Sigma-Aldrich, St. Louis, MO, USA) solution (10% in 0.01 M HCl; Merck, Darmstadt, Germany) were added to each well and the plates were further incubated at 37 °C overnight. OD was measured at 540/630 nm with Multiscan EX ELISA reader (Thermo Labsystems, Cheshire, WA). Combination index (CI) values at 50% of the growth inhibition dose (ED50), were determined using CompuSyn software (ComboSyn, Inc., Paramus, NJ) to plot four to five data points to each ratio.

[2] = tested on: doxorubicin-sensitive Colo 205 colonic adenocarcinoma cells; assay: MTT antiproliferative assay (72 h), Colo 205; format: cell-based, human; details: Homo sapiens, COLO 205, 72 h incubation, read-out: Antiproliferative IC50, Colo205
Description: (§1) Human colonic adenocarcinoma cell lines (Colo 205 doxorubicin-sensitive and Colo 320/MDR-LRP multidrug-resistant expressing ABCB1 (MDR1)-LRP), ATCC-CCL-220.1 (Colo 320) and CCL-222 (Colo 205) were purchased from LGC Promochem, Teddington, UK. The cells were cultured in RPMI 1640 medium supplemented with 10% heat-inactivated foetal bovine serum, 2 mM L-glutamine, 1 mM Na-pyruvate and 100 mM Hepes. The cell lines were incubated at 37 °C, in a 5% CO2, 95% air atmosphere. The semi-adherent human colon cancer cells were detached with Trypsin-Versene (EDTA) solution for 5 min at 37 °C.
(§2) MRC-5 non-cancerous human embryonic lung fibroblast and human colonic adenocarcinoma cell lines (doxorubicin-sensitive Colo 205 and multidrug-resistant Colo 320 colonic adenocarcinoma cells) were used to determine the effect of compounds on cell proliferation and growth. The effects of increasing concentrations of compounds on cell proliferation and growth were tested in 96-well flat-bottomed microtitre plates. The compounds were diluted in a volume of 100 μL of medium.
(§3) In case of the colonic adenocarcinoma cells, the 2-fold serial dilutions of compounds were prepared in 100 μL of RPMI 1640, horizontally. The semi-adherent colonic adenocarcinoma cells were treated with Trypsin-Versene (EDTA) solution. The density of the cells was adjusted to 6 × 10^3 cells (antiproliferative assay) or 1 × 10^4 cells (cytotoxicity assay) in 100 μL of RPMI 1640 medium, and was added to each well, with the exception of the medium control wells. The final volume of the wells containing compounds and cells was 200 μL.
(§4) The culture plates were incubated at 37 °C for 72 h (antiproliferative test) or 24 h (cytotoxicity test); at the end of the incubation period, 20 μL of MTT (thiazolyl blue tetrazolium bromide, Sigma, St. Louis, MO, USA) solution (from a stock solution of 5 mg/mL) were added to each well. After incubation at 37 °C for 4 h, 100 μL of sodium dodecyl sulphate (SDS) (Sigma) solution (10% in 0.01 M HCI) were added to each well and the plates were further incubated at 37 °C overnight. Cell growth was determined by measuring the optical density (OD) at 540/630 nm with Multiscan EX ELISA reader (Thermo Labsystems, Cheshire, WA, USA). Inhibition of the cell growth was determined according to the formula below: Inhibition %=100−[OD sample−OD medium control/OD cell control−OD medium control]×100
(§5) Results are expressed in terms of IC50, defined as the inhibitory dose that reduces the growth of the cells exposed to the tested compounds by 50%.

[3] = tested on: multidrug-resistant Colo 320 colonic adenocarcinoma cells; assay: MTT cytotoxicity assay (24 h), Colo 320; format: cell-based; details: Homo sapiens, COLO 320, 24 h, 24 h incubation, read-out: Cytotoxicity IC50, Colo320
Description: as §1, §2, §3, §4, §5

[4] = MTT cytotoxicity assay (24 h), MRC-5; format: cell-based; details: human, MRC-5 embryonal lung fibroblast cells, 24 h incubation
Description: (§6) MRC-5 human embryonal lung fibroblast cell lines (ATCC CCL-171) were purchased from LGC Promochem, Teddington, UK. The cell line was cultured in Eagle’s Minimal Essential Medium (EMEM, containing 4.5 g/L glucose) supplemented with a non-essential amino acid mixture, a selection of vitamins and 10% heat-inactivated foetal bovine serum. The cell lines were incubated at 37 °C, in a 5% CO2, 95% air atmosphere.
as §2
(§7) The adherent human embryonal lung fibroblast cells were seeded overnight and cultured in 96-well flat-bottomed microtitre plates prior to the assay, using EMEM supplemented with 10% heat-inactivated foetal bovine serum. The density of the cells was adjusted to 6 × 10^3 cells (antiproliferative assay) or 1 × 10^4 cells (cytotoxicity assay) in 100 μL per well, the cells were seeded for 24 h at 37 °C, 5% CO2, then the medium was removed from the plates containing the cells, and the dilutions of compounds (200 µL) previously made in a separate plate were added to the cells in.
as §4, §5

[5] = tested on: MRC-5 human embryonal lung fibroblast cell line; assay: MTT antiproliferative assay (72 h), MRC-5; format: cell-based; details: Homo sapiens, MRC5, 72 h incubation
Description: as §6, §2, §7, §4, §5

[6] = tested on: doxorubicin-sensitive Colo 205 colonic adenocarcinoma cells; assay: MTT cytotoxicity assay (24 h), Colo 205; format: cell-based, human; details: Homo sapiens, COLO 205; MTT, 24 h incubation; read-out: Cytotoxicity IC50, Colo205
Description: as §1, §2, §3, §4, §5

MCF-7 mp53 cells = tested on: MCF-7 mp53 cells; design: method as in Sturgeon et al. [2005]; details: ref Sturgeon et al. [2005]; cited from earlier work
[7] = tested on: multidrug-resistant Colo 320 colonic adenocarcinoma cells; assay: MTT antiproliferative assay (72 h), Colo 320; format: cell-based, human; details: Homo sapiens, COLO 320, 72 h, MTT, 72 h incubation; read-out: Antiproliferative IC50, Colo320
Description: as §1, §2, §3, §4, §5

[8] = MTT cytotoxicity assay (24 h), Colo 205; format: cell-based, human; details: human colonic adenocarcinoma cell lines versus MRC-5, cytotoxicity; read-out: selectivity index [SI], cytotoxicity
Description: as §1, §2, §3, §4, §5

[9] = tested on: Staphylococcus aureus ATCC 25923; assay: Real-time ethidium bromide accumulation assay, S. aureus ATCC 25923; format: cell-based; details: EB accumulation, 60 min, positive control at 25 μM
Description: (§8) The impact of compounds on EB accumulation was determined by the automated EB method using a CLARIOstar Plus plate reader (BMG Labtech, Aylesbury, UK). First, the bacterial strain was incubated until it reached an OD of 0.6 at 600 nm [Escherichia coli AG100 is incubated in Luria–Bertani (LB) broth and Staphylococcus aureus ATCC 25923 is incubated in tryptic soy broth (TSB)]. The culture was washed with PBS (pH 7.4) and centrifuged at 13,000 × g for 3 min, the cell pellet was re-suspended in PBS. The compounds were added at ½ MIC concentration (in case of >100 the concentration is 100 µM) to PBS containing a non-toxic concentration of EB (2 µg/mL). […] Then, the plates were placed into the CLARIOstar plate reader, and the fluorescence was monitored at excitation and emission wavelengths of 525 and 615 nm every minute for 1 h on a real-time basis. From the real-time data, the activity of the compounds, namely the relative fluorescence index (RFI) of the last time point (60 min) of the EB accumulation assay, was calculated according to the following formula: RFI=(RFtreated – RFuntreated)/RFuntreated where RFtreated is the relative fluorescence (RF) at the last time point of EB retention curve in the presence of an inhibitor, and RFuntreated is the RF at the last time point of the EB retention curve of the untreated control having the solvent control (DMSO). […]

[10] = target: T1, ABCB1 efflux pump (P-glycoprotein) (Homo sapiens, UniProt P08183); assay: Rhodamine 123 retention by flow cytometry (ABCB1 inhibition); format: cell-based; details: rhodamine 123, Colo 320 vs Colo 205, at 0.2 µM
T1 construct: The colonic adenocarcinoma cells (the doxorubicin-sensitive Colo 205 and the multidrug-resistant Colo 320); CCL-222 (Colo 205); host or cells: Colo 320/MDR-LRP (multidrug-resistant, overexpressing ABCB1) and Colo 205 (sensitive) human colon adenocarcinoma cells
T1 sequence (P08183 whole entry): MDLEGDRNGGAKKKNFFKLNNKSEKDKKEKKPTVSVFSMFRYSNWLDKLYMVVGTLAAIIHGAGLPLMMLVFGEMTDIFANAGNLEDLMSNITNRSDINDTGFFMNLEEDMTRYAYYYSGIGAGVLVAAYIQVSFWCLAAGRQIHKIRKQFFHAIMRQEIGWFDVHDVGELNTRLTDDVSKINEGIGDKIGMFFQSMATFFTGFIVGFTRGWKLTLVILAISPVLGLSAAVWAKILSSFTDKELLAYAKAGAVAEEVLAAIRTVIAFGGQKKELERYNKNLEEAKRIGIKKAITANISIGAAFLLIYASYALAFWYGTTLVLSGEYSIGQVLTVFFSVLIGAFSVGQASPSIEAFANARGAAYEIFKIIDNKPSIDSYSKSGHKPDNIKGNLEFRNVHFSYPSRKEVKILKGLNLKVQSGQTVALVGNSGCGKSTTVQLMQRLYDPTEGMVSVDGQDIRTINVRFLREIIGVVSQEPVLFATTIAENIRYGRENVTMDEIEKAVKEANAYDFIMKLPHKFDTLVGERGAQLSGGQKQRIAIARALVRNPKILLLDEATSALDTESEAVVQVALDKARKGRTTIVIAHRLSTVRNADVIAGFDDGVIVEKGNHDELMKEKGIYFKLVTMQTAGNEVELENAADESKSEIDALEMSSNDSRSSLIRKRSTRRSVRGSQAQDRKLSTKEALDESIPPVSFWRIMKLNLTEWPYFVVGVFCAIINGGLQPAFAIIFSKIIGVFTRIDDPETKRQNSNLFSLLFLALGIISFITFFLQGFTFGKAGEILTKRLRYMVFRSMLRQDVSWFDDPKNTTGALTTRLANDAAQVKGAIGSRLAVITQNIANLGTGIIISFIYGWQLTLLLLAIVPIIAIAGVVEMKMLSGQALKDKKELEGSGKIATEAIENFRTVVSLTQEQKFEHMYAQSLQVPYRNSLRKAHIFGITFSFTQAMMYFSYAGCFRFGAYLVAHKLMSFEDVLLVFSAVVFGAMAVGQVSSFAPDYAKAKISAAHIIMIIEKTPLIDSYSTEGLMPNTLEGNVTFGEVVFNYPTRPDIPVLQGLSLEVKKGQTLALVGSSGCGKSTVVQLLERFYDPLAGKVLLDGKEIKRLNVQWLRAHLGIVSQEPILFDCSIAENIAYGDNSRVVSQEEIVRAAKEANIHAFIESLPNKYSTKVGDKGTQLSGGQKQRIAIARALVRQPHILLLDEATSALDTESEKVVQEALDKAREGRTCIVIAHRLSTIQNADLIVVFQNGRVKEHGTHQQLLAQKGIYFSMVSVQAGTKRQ
Description: This method is a fluorescence-based detection system which uses tariquidar as a reference inhibitor of the ABCB1 efflux pump (EP). The colonic adenocarcinoma cells (the doxorubicin-sensitive Colo 205 and the multidrug-resistant Colo 320) were adjusted to a density of 2 × 10^6/mL, re-suspended in serum-free RPMI 1640 medium and distributed in 0.5 mL aliquots into Eppendorf centrifuge tubes. The compounds were added at different concentrations (2 μM and 20 μM final concentrations, respectively), and the samples were incubated for 10 min at room temperature. […] The fluorescence intensity of the cell population was measured with a Partec CyFlow flow cytometer (Partec, Munster, Germany). […] The mean fluorescence intensity (%) was calculated for the treated MDR Colo 320 and sensitive Colo 205 cell lines as compared to the untreated cells. The fluorescence activity ratio (FAR) was calculated based on the following equation which relates the measured fluorescence values: FAR=Colo 320treated/Colo 320control/Colo 205treated/Colo 205control
The fluorescence dye, rhodamine 123 was used as a marker of the ABCB1 transporter activity to explore the potential inhibitory activity of the isolated compounds. Inside cells without overexpressing the P-glycoprotein, the rhodamine 123 accumulates and resulting in an increase in fluorescence intensity (λex = 490/λem = 525 nm). […]

Escherichia coli AG100 = details: EB accumulation, 60 min, positive control at 50 μM
Description: as §8

C=C1C(=O)O[C@@H]2[C@H]1CC[C@H](C)[C@@H]1CCC(=O)O[C@@]21C [Compound 1, psilostachyin C]
Type of interaction ([1]; starting concentration 50 µM, ratio 11.6:1): Strong antagonism | Type of interaction ([1]; starting concentration 50 µM, ratio 23.2:1): Antagonism | Type of interaction ([1]; starting concentration 50 µM, ratio 46.4:1): Slight antagonism | Type of interaction ([1]; starting concentration 50 µM, ratio 92.8:1): Antagonism | Type of interaction ([1]; starting concentration 50 µM, ratio 185:1): Moderate antagonism | Type of interaction ([1]; starting concentration 50 µM, ratio compound:doxorubicin 5.8:1): Strong antagonism | IC50 [2]: 15.6 ± 0.83 µM | IC50 [3]: 28.71 ± 0.11 µM | IC50 at 24 h [4]: 52.7 ± 2.62 µM | IC50 [5]: 35.1 ± 4.03 µM | IC50 [6]: 26.6 ± 0.48 µM | effect on mitosis of MCF-7 mp53 cells (G2 checkpoint inhibitors) (MCF-7 mp53 cells): blocked MCF-7 mp53 cells in mitosis | IC50 [7]: 14.7 ± 0.82 µM

CC(=O)O[C@@H]1C[C@H]2[C@@H](C)CC[C@@H]3[C@@H](OC(=O)[C@@H]3C)[C@]2(C)C1=O [Compound 2, acetoxydihydrodamsin]
Type of interaction ([1]; starting concentration 15 µM, ratio 1.74:1): Antagonism | Type of interaction ([1]; starting concentration 15 µM, ratio 3.48:1): Antagonism | Type of interaction ([1]; starting concentration 15 µM, ratio 6.96:1): Antagonism | Type of interaction ([1]; starting concentration 15 µM, ratio 13.92.1): Antagonism | Type of interaction ([1]; starting concentration 15 µM, ratio 27.84:1): Moderate antagonism | Type of interaction ([1]; starting concentration 15 µM, ratio 55.68:1): Moderate antagonism | IC50 [2]: 5.14 ± 0.55 µM | IC50 [3]: 10.8 ± 0.22 µM | IC50 at 24 h [4]: 23.8 ± 1.06 µM | IC50 [5]: 11 ± 0.31 µM | IC50 [6]: 7.64 ± 0.37 µM | selectivity ratio at 24 h [8]: 3.11 | IC50 [7]: 3.67 ± 0.35 µM

COC(=O)[C@H]1[C@H]2C[C@@H]3c4[nH]c5cc(OC)ccc5c4CCN3C[C@H]2C[C@@H](OC(=O)c2cc(OC)c(OC)c(OC)c2)[C@@H]1OC [reserpine]
RFI (relative fluorescence index) [9]: 2.77

COc1cc2c(cc1OC)CN(CCc1ccc(NC(=O)c3cc(OC)c(OC)cc3NC(=O)c3cnc4ccccc4c3)cc1)CC2 [tariquidar]
FAR value (fluorescence activity ratio) [10]: 6.6

carbonyl cyanide m-chlorophenylhydrazine [CCCP]
RFI (relative fluorescence index) (Escherichia coli AG100): 1.34
